Molecular target: BMSmAb (Bristol Myers Squibb mAb, a type of IgG4)
Assay: STD NMR titration
Assay type: binding

OC[C@H]1O[C@@](CO)(O[C@H]2O[C@H](CO)[C@@H](O)[C@H](O)[C@H]2O)[C@@H](O)[C@@H]1O [sucrose]
Kd: 67.8 mM
